Laboratory results reported in patent US20260209234A1, “SUBSTITUTED DIHYDROPYRROLO[3,4-D]PYRIMIDINE COMPOUNDS AND THEIR USE IN TREATING MEDICAL CONDITIONS” (Karuna Therapeutics, Inc., priority 2022, published 2026).

Tests used:
hM4 receptors = biological target: T1, hM4 receptors (Homo sapiens, UniProt P08173); test: Human M4 PAM pERK assay; assay type: cell-based; conditions: CHO cells expressing hM4; EC20 of acetylcholine (10 nM final); TR-FRET
T1 construct: expressed in transfected cells; host or cells: CHO cells
T1 sequence (P08173 1-479): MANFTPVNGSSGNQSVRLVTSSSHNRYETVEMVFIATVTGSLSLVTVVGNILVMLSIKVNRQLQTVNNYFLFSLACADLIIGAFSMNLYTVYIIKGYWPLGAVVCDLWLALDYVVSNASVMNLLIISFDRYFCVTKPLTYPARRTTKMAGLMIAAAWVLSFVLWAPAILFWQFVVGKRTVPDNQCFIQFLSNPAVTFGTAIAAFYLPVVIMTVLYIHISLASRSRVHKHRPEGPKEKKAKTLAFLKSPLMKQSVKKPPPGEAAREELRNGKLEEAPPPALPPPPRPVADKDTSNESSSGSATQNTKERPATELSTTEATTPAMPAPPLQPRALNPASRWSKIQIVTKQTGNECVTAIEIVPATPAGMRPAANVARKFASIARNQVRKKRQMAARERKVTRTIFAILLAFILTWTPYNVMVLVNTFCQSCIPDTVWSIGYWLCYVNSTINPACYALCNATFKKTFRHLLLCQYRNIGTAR
Protocol: (§1) Chinese hamster ovary (CHO) cells expressing either hM4 or rM4 receptors were frozen in assay ready vials (5×10^6 cells/vial) after bulking-up in culture. The day before an assay, vial(s) were thawed and cells seeded in 384 well white proxiplates at 1000/well for hM4 cells and at 2000/well for rM4 cells, in 10 μL of growth media (Hams/F12 with glutamax and 10% FCS) and incubated overnight at 37° C./5% CO2.
(§2) On the following morning, the growth media was removed by ‘flicking out’ over a bin, patting the inverted plate onto tissue, and then replacing with 10 μL of wash media (Hams/F12 with glutamax and 8 mM HEPES, NB: serum free). Then, the wash media was removed in the same way and replaced with 8 μL/well of the serum free media. Plates were then re-incubated for a further 4 hours at 37° C./5% CO2.
(§3) Compounds for testing were solubilized to 10 mM in DMSO and compound addition plates, consisting of ten-point concentration response curves (CRC) in duplicate points (10 μM top concentration, 1/2 log dilution series), were prepared by acoustic dispensing and the compound management group.
(§4) After the 4-hour incubation in serum free media, a 4 μL aliquot of the 3× compound solution containing an EC20 of acetylcholine (10 nM final concentration) was added to the cell plate using a 384 well plate to plate transfer. Then, the plate lid was replaced, and the cells incubated for 5 mins at 37° C./5% CO2. Following this final incubation, all cellular processes were stopped by the addition of 4 μL/well of lysis and blocking buffer and plates were incubated for 30 minutes at RT on an orbital shaker (gentle setting). Then, a final addition of 4 μL/well of antibody detection mix, containing both the Europium-Cryptate (donor) and d2 (acceptor) tagged detection components, was added followed by a further 2-hour incubation at RT, and then the plate was read using a TR-FRET (time resolved fluorescence resonance energy transfer) based protocol.

rM4 receptors = biological target: T2, rM4 receptors (Rattus norvegicus, UniProt P08485); test: Rat M4 PAM pERK assay; assay type: cell-based; conditions: CHO cells expressing rM4; EC20 of acetylcholine (10 nM final); TR-FRET
T2 construct: expressed in transfected cells; host or cells: CHO cells
T2 sequence (P08485 1-478): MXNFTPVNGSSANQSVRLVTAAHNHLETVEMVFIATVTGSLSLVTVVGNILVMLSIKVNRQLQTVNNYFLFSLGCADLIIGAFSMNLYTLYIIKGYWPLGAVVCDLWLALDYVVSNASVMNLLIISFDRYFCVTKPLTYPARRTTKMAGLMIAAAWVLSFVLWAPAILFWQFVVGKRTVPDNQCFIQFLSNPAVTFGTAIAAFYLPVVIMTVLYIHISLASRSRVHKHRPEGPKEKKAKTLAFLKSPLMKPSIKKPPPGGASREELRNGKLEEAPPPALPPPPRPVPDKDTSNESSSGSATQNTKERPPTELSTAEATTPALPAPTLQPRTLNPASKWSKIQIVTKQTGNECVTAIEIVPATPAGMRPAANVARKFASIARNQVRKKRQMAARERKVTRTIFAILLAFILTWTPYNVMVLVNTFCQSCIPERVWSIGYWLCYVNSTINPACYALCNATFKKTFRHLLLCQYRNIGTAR
Protocol: as §1, §2, §3, §4

human M4 receptor = biological target: T3, human M4 receptor (Homo sapiens, UniProt P08173); test: M4 GTPγS PAM assay; assay type: biochemical; conditions: membranes of CHO-K1 cells stably expressing human M4; EC20 acetylcholine 40 nM; 35S-GTP
T3 construct: expressed in transfected cells
T3 sequence (P08173 1-479): T1 sequence (P08173 1-479)
Protocol: The M4 GTPγS PAM method was used. Membranes were prepared for GTPgS binding assays from CHO-K1 cells stably expressing human M4 receptor. Briefly, cells were grown in 5-layer cell culture flasks. Cells were washed with 50 mL of PBS and then dissociated with 0.05% trypsin. Dissociated cells were then collected by centrifugation at 650×g for 8 minutes at 4° C. Pellets were washed again in PBS by centrifugation and resuspended in 30 mL of 20 mM HEPES, 10 mM EDTA, pH 7.4. After sitting on ice for 30 min, membranes were collected by centrifugation at 50000×g for 15′ at 4° C., resuspended in 30 mL of 20 mM HEPES, 0.1 mM EDTA, pH 7.4 and collected again by centrifugation. Pellets were then washed twice by centrifugation in 30 mL of 20 mM HEPES, pH 7.4, and stored at −80° C. until the day of the assay. On the day of the assay, pellets were thawed on ice and resuspended in 1 mL of 20 mM HEPES, pH 7.4, 10 mM MgCl2, 100 mM NaCl using dounce homogenization. Membrane protein concentration is determined by BCA protein assay (Promega, Madison, WI) according to Promega guidelines.
On the day of the assay, serial dilutions of test PAM compounds were brought up in assay buffer (20 mM HEPES, 10 mM MgCl2, 100 mM NaCl) at 4× final assay concentration. […] of membrane homogenates (containing […] of membrane protein) were prepared in assay buffer supplemented with GDP at 4× final assay concentration (final assay concentration of GDP is 5 μM for M2 and 0.1 μM for M4) and dispensed into 96 well polypropylene, U-bottom Greiner plates. […] of vehicle or test PAM compound at 4× of final assay concentration diluted in the assay buffer were added to membrane and plates are incubated for 10-15 minutes at room temperature with gentle shaking. Then, […] of EC20 acetylcholine in assay buffer at 4× final assay concentration was added to assay plates (EC20 final assay concentrations was 40 nM for human M4).
Plates were then incubated, with shaking, for an additional 10-15 minutes. […] of 0.4 nM 35S-GTP (Perkin Elmer, Waltham, MA) in assay buffer was added to assay mixtures. The binding reaction is left on the shaker for 1 hour at room temperature. Membranes in assay reactions were then transferred to GF/C filter plates (Unifilter, Perkin Elmer) and washed three times using a FilterMate Harvester (Perkin Elmer) with cold assay buffer containing no GDP. Filter plates were then dried at 40° C. overnight followed by the addition of […] of Beta Plate Scintillation liquid. Plates are top and bottom sealed before being read on TopCount scintillation counter (Perkin Elmer, Waltham, MA).

Compound | EC50 (hM4 receptors) | EC50 (rM4 receptors) | EC50 (human M4 receptor)
COc1nc(C#N)nc2c1C(C)N(C(=O)CC1CN(c3ccnc(C4CC4)c3)C1)C2 (single isomer, unassigned) [Compound I-12, 6-(2-(1-(2-Cyclopropylpyridin-4-yl)azetidin-3-yl)acetyl)-4-methoxy-5-methyl-6,7-dihydro-5H-pyrrolo[3,4-d]pyrimidine-2-carbonitrile] | ≤ 100 nM | 500 to 2000 nM | ≤ 100 nM
COc1nc(C#N)nc2c1C(C)N(C(=O)CC1CN(c3ccnc(OC4CC4)c3)C1)C2 (single isomer, unassigned) [Compound I-13, 6-(2-(1-(2-Cyclopropoxypyridin-4-yl)azetidin-3-yl)acetyl)-4-methoxy-5-methyl-6,7-dihydro-5H-pyrrolo[3,4-d]pyrimidine-2-carbonitrile] | ≥ 2000 nM | ≥ 2000 nM | 500 to 2000 nM
COc1nc(C#N)nc2c1C(C)N(C(=O)CC1CN(c3ccnc(OC4CC4)c3)C1)C2 (single isomer, unassigned) [Compound I-14, 6-(2-(1-(2-Cyclopropoxypyridin-4-yl)azetidin-3-yl)acetyl)-4-methoxy-5-methyl-6,7-dihydro-5H-pyrrolo[3,4-d]pyrimidine-2-carbonitrile] | ≤ 100 nM | 500 to 2000 nM | ≤ 100 nM
COc1nc(C#N)nc2c1C(C)N(C(=O)CC1CN(c3ccc(C#N)cc3)C1)C2 (single isomer, unassigned) [Compound I-23, 6-(2-(1-(4-Cyanophenyl)azetidin-3-yl)acetyl)-4-methoxy-5-methyl-6,7-dihydro-5H-pyrrolo[3,4-d]pyrimidine-2-carbonitrile] | ≤ 100 nM | 100 to 500 nM | ≤ 100 nM
COc1nc(C#N)nc2c1C(C)N(C(=O)CC1CN(c3cncnc3)C1)C2 (single isomer, unassigned) [Compound I-27, 4-Methoxy-5-methyl-6-(2-(1-(pyrimidin-5-yl)azetidin-3-yl)acetyl)-6,7-dihydro-5H-pyrrolo[3,4-d]pyrimidine-2-carbonitrile] | ≤ 100 nM | 500 to 2000 nM | ≥ 2000 nM

Continued, values first:

EC50 (hM4 receptors) | EC50 (rM4 receptors) | EC50 (human M4 receptor) | Compound
≥ 2000 nM | ≥ 2000 nM | ≥ 2000 nM | COc1nc(C#N)nc2c1C(C)N(C(=O)CC1CN(c3cccc(C(F)(F)F)c3)C1)C2 (single isomer, unassigned) [Compound I-15, 4-Methoxy-5-methyl-6-(2-(1-(3-(trifluoromethyl)phenyl)azetidin-3-yl)acetyl)-6,7-dihydro-5H-pyrrolo[3,4-d]pyrimidine-2-carbonitrile]
100 to 500 nM | 100 to 500 nM | 100 to 500 nM | COc1nc(C#N)nc2c1C(C)N(C(=O)CC1CN(c3cccc(F)c3F)C1)C2 (single isomer, unassigned) [Compound I-19, 6-(2-(1-(2,3-Difluorophenyl)azetidin-3-yl)acetyl)-4-methoxy-5-methyl-6,7-dihydro-5H-pyrrolo[3,4-d]pyrimidine-2-carbonitrile]
≥ 2000 nM | ≥ 2000 nM | ≥ 2000 nM | COc1nc(C#N)nc2c1C(C)N(C(=O)CC1CN(c3cccc(F)c3F)C1)C2 (single isomer, unassigned) [Compound I-20, 6-(2-(1-(2,3-Difluorophenyl)azetidin-3-yl)acetyl)-4-methoxy-5-methyl-6,7-dihydro-5H-pyrrolo[3,4-d]pyrimidine-2-carbonitrile]
≥ 2000 nM | ≥ 2000 nM | ≥ 2000 nM | COc1nc(C#N)nc2c1C(C)N(C(=O)CC1CN(c3ccc(C4CC4)c(F)c3)C1)C2 (single isomer, unassigned) [Compound I-21, 6-(2-(1-(4-Cyclopropyl-3-fluorophenyl)azetidin-3-yl)acetyl)-4-methoxy-5-methyl-6,7-dihydro-5H-pyrrolo[3,4-d]pyrimidine-2-carbonitrile]
100 to 500 nM | 100 to 500 nM | 100 to 500 nM | COc1nc(C#N)nc2c1C(C)N(C(=O)CC1CN(c3ccc(C4CC4)c(F)c3)C1)C2 (single isomer, unassigned) [Compound I-22, 6-(2-(1-(4-Cyclopropyl-3-fluorophenyl)azetidin-3-yl)acetyl)-4-methoxy-5-methyl-6,7-dihydro-5H-pyrrolo[3,4-d]pyrimidine-2-carbonitrile]
≥ 2000 nM | ≥ 2000 nM | ≥ 2000 nM | COc1nc(C#N)nc2c1C(C)N(C(=O)CC1CN(c3cnnc(C(F)(F)F)c3)C1)C2 (single isomer, unassigned) [Compound I-24, 4-Methoxy-5-methyl-6-(2-(1-(6-(trifluoromethyl)pyridazin-4-yl)azetidin-3-yl)acetyl)-6,7-dihydro-5H-pyrrolo[3,4-d]pyrimidine-2-carbonitrile]
100 to 500 nM | 500 to 2000 nM | 100 to 500 nM | COc1nc(C#N)nc2c1C(C)N(C(=O)CC1CN(c3cnnc(C(F)(F)F)c3)C1)C2 (single isomer, unassigned) [Compound I-25, 4-Methoxy-5-methyl-6-(2-(1-(6-(trifluoromethyl)pyridazin-4-yl)azetidin-3-yl)acetyl)-6,7-dihydro-5H-pyrrolo[3,4-d]pyrimidine-2-carbonitrile]
